Data from the supplement of paper PMC11208160.

Assay: recombinant barcode read abundance after kanamycin selection (control-corrected) (log10(CPM+1)); higher = more efficient recombination; sequences stand for … in AGTGCAGAGAAAATCGGCCAGTTTTCTCTGCCTGCAGTCCGCATGCCGT…AGATTTATGCAGCGGACTGCCTTTCTCCCAAAGTGATAAACCGGACAGTATCATGGACCGGTTTTCCCGGTAATCCGTATTTGCAAGGTTGGTTTCACT; site = the 11-nt target
Procedure, shortened: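 The screen was pooled in E. coli and paired targets with IS621 bridge RNA target-binding loops. Recombination efficiency is taken from barcode counts per million at recombinant junctions, averaged and adjusted against the control. Values, in the form log10(CPM+1), come from duplicate plating on chloramphenicol/ampicillin LB agar or on chloramphenicol/ampicillin/kanamycin with 0.1 mM IPTG.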
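Note: IS621 recombinase and bridge RNA in Escherichia coli cells.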

| Sequence | recombinant barcode read abundance (log10) |
| --- | --- |
| GCGGTGACTTGGGTTCTAACCTGTTGCCT (site ACGGTGACTAG) | 0.942 |
| GCGGTGACTTGGGTTCTAACCTGTTGCCT (site CCGGTGACTAG) | 0.172 |
| GCGGTGACTTGGGTTCTAACCTGTTGCCT (site GCGGTGACTAG) | 1.48 |
| GCGGTGACTTGGGTTCTAACCTGTTGCCT (site TCGGTGACTAG) | 0.074 |
| GCGTACCCTTGGGTTCTAACCTGTTGCCT (site GAGTACCCTAG) | 0.404 |
| GCGTACCCTTGGGTTCTAACCTGTTGCCT (site GCGTACCCTAG) | 1.41 |
| GCGTACCCTTGGGTTCTAACCTGTTGCCT (site GGGTACCCTAG) | 0.0245 |
| GCGTACCCTTGGGTTCTAACCTGTTGCCT (site GTGTACCCTAG) | 0.0662 |
| GCGTACTCTTGGGTTCTAACCTGTTGCCT (site GCGGACTCTTG) | 0.0368 |
| GCGTACTCTTGGGTTCTAACCTGTTGCCT (site GCGTACTCTAG) | 2.02 |
| GCGTCCACTTGGGTTCTAACCTGTTGCCT (site GCATCCACTAG) | 0.398 |
| GCGTCCACTTGGGTTCTAACCTGTTGCCT (site GCGTCCACTAG) | 0.0111 |
| GCGTGTACTTGGGTTCTAACCTGTTGCCT (site GCGGGTACTAG) | 0.208 |
| GCGTGTACTTGGGTTCTAACCTGTTGCCT (site GCGTGTACTAG) | 0.948 |
| GCTAAGTCTTGGGTTCTAACCTGTTGCGT (site GCGGAGTCTAC) | 0.166 |
| GCTAAGTCTTGGGTTCTAACCTGTTGCGT (site GCTAAGTCTAC) | 2.61 |
| GCTAGTCCTTGGGTTCTAACCTGTTGCGT (site GCTAGTCCTAC) | 2.14 |
| GCTAGTCCTTGGGTTCTAACCTGTTGCGT (site GCTAGTCCTCA) | 0.0737 |
| GCTATGTCTTGGGTTCTAACCTGTTGCCT (site GCTATGTCTAG) | 1.42 |
| GCTATGTCTTGGGTTCTAACCTGTTGCCT (site GGTATGTCTAA) | 0.0851 |
| GCTCAGTCTTGGGTTCTAACCTGTTGCCT (site GCTCAGACTAG) | 0.00917 |
| GCTCAGTCTTGGGTTCTAACCTGTTGCCT (site GCTCAGCCTAG) | 0.645 |

| Sequence | recombinant barcode read abundance (log10) |
| --- | --- |
| GCTCAGTCTTGGGTTCTAACCTGTTGCCT (site GCTCAGGCTAG) | 0.218 |
| GCTCAGTCTTGGGTTCTAACCTGTTGCCT (site GCTCAGTCTAG) | 1.78 |
| GCTCATGCTTGGGTTCTAACCTGTTGCCT (site GCTCATGCTAG) | 1.92 |
| GCTCATGCTTGGGTTCTAACCTGTTGCCT (site GCTCATTCTAG) | 0.132 |
| GCTCATTCTTGGGTTCTAACCTGTTGCCT (site GCTCATGCTAG) | 0 |
| GCTCATTCTTGGGTTCTAACCTGTTGCCT (site GCTCATTCTAG) | 0.557 |
| GCTCCATCTTGGGTTCTAACCTGTTGCCT (site GATCCATCTAG) | 0.0768 |
| GCTCCATCTTGGGTTCTAACCTGTTGCCT (site GCTCCATCTAG) | 0.941 |
| GCTCCATCTTGGGTTCTAACCTGTTGCCT (site GGTCCATCTAG) | 0.122 |
| GCTCCATCTTGGGTTCTAACCTGTTGCCT (site GTTCCATCTAG) | 0.291 |
| GCTCCTCCTTGGGTTCTAACCTGTTGCAT (site ATAGAGTCTCG) | 0.0486 |
| GCTCCTCCTTGGGTTCTAACCTGTTGCAT (site GCTCCTCCTAT) | 1.15 |
| GCTCGAACTTGGGTTCTAACCTGTTGCCT (site GCACGAACTAG) | 0.46 |
| GCTCGAACTTGGGTTCTAACCTGTTGCCT (site GCCCGAACTAG) | 0.138 |
| GCTCGAACTTGGGTTCTAACCTGTTGCCT (site GCGCGAACTAG) | 0.00752 |
| GCTCGAACTTGGGTTCTAACCTGTTGCCT (site GCTCGAACTAG) | 0.38 |
| GCTCGTGCTTGGGTTCTAACCTGTTGCCT (site GCACGTGCTAG) | 0.69 |
| GCTCGTGCTTGGGTTCTAACCTGTTGCCT (site GCCCGTGCTAG) | 0.278 |
| GCTCGTGCTTGGGTTCTAACCTGTTGCCT (site GCGCGTGCTAG) | 0.238 |
| GCTCGTGCTTGGGTTCTAACCTGTTGCCT (site GCTCGTGCTAG) | 1.1 |
| GCTGAGGCTTGGGTTCTAACCTGTTGCCA (site CTCTGCTCTGA) | 0.165 |
| GCTGAGGCTTGGGTTCTAACCTGTTGCCA (site GCTGAGGCTTG) | 0.636 |

| Sequence | recombinant barcode read abundance (log10) |
| --- | --- |
| GCTGAGTCTTGGGTTCTAACCTGTTGCTA (site AGGCCCACTAT) | 0.0625 |
| GCTGAGTCTTGGGTTCTAACCTGTTGCTA (site GCTGAGTCTTA) | 2.08 |
| GCTGCTCCTTGGGTTCTAACCTGTTGCGT (site GCGGGTCCTAC) | 0.0749 |
| GCTGCTCCTTGGGTTCTAACCTGTTGCGT (site GCTGCTCCTAC) | 1.82 |
| GCTGGGCCTTGGGTTCTAACCTGTTGCGA (site GATGGGCCTAC) | 0.0848 |
| GCTGGGCCTTGGGTTCTAACCTGTTGCGA (site GCTGGGCCTTC) | 2.17 |
| GCTGTATCTTGGGTTCTAACCTGTTGCCT (site ACTGTATCTAG) | 0.288 |
| GCTGTATCTTGGGTTCTAACCTGTTGCCT (site CCTGTATCTAG) | 0.163 |
| GCTGTATCTTGGGTTCTAACCTGTTGCCT (site GCTGTATCTAG) | 0.612 |
| GCTGTATCTTGGGTTCTAACCTGTTGCCT (site TCTGTATCTAG) | 0.0648 |
| GCTTCTTCTTGGGTTCTAACCTGTTGCCT (site GATTCTTCTAG) | 0.398 |
| GCTTCTTCTTGGGTTCTAACCTGTTGCCT (site GCTTCTTCTAG) | 0.0876 |
| GCTTCTTCTTGGGTTCTAACCTGTTGCCT (site GGTTCTTCTAG) | 0.0632 |
| GCTTCTTCTTGGGTTCTAACCTGTTGCCT (site GTTTCTTCTAG) | 0.0974 |
| GCTTGAGCTTGGGTTCTAACCTGTTGCCG (site CCTTGAGCTCA) | 0.0954 |
| GCTTGAGCTTGGGTTCTAACCTGTTGCCG (site GCTTGAGCTCG) | 0.344 |
| GCTTGAGCTTGGGTTCTAACCTGTTGCCT (site GCATGAGCTAG) | 0.421 |
| GCTTGAGCTTGGGTTCTAACCTGTTGCCT (site GCCTGAGCTAG) | 0.158 |
| GCTTGAGCTTGGGTTCTAACCTGTTGCCT (site GCGTGAGCTAG) | 0.139 |
| GCTTGAGCTTGGGTTCTAACCTGTTGCCT (site GCTTGAGCTAG) | 0.589 |
| GCTTGGACTTGGGTTCTAACCTGTTGCCT (site GCTTGGACTAG) | 0.467 |
| GCTTGGACTTGGGTTCTAACCTGTTGCCT (site GCTTTGACTAG) | 0.0492 |
